Columns and labels:
Enterococcus faecalis = assay: Antimicrobial activity against Enterococcus faecalis ATCC 29212 after 18 hrs by twofold agar dilution method; format: functional; settings: ATCC 29212, 18 h
Klebsiella aerogenes = assay: Antimicrobial activity against Klebsiella aerogenes harboring beta-lactamase SHV-1 1976E mutant after 18 hrs by twofold agar dilution method; format: functional
Staphylococcus aureus [1] = assay: Antimicrobial activity against Staphylococcus aureus 241 after 18 hrs by twofold agar dilution method; format: functional; settings: Staphylococcus aureus, 241, 18 h; read-out: MIC
Morganella morganii = assay: Antimicrobial activity against Morganella morganii 1375E after 18 hrs by twofold agar dilution method; format: functional
Escherichia coli [2] = assay: Antimicrobial activity against Escherichia coli 851E after 18 hrs by twofold agar dilution method; format: functional
Micrococcus luteus = assay: Antimicrobial activity against Micrococcus luteus ATCC 9341 after 18 hrs by twofold agar dilution method; format: functional; settings: ATCC 9341, 18 h, read-out: MIC
Bacillus subtilis = assay: Antimicrobial activity against Bacillus subtilis ATCC 6633 after 18 hrs by twofold agar dilution method; format: functional; settings: ATCC 6633, 18 h
Escherichia coli [3] = assay: Antimicrobial activity against Escherichia coli ATCC 25922 after 18 hrs by twofold agar dilution method; format: functional; settings: ATCC 25922, 18 h
Moraxella catarrhalis [4] = assay: Antimicrobial activity against Moraxella catarrhalis 25240 after 18 hrs by twofold agar dilution method; format: functional; settings: Moraxella catarrhalis, 25240, 18 h
Citrobacter koseri = assay: Antimicrobial activity against Citrobacter diversus 2046 after 18 hrs by twofold agar dilution method; format: functional; settings: Citrobacter koseri, 2046, 18 h
Staphylococcus aureus [5] = assay: Antimicrobial activity against Staphylococcus aureus giorgio after 18 hrs by twofold agar dilution method; format: functional
Pseudomonas aeruginosa = assay: Antimicrobial activity against Pseudomonas aeruginosa 6065Y after 18 hrs by twofold agar dilution method; format: functional
Proteus vulgaris = assay: Antimicrobial activity against Proteus vulgaris 6059 after 18 hrs by twofold agar dilution method; format: functional; settings: Proteus vulgaris, 6059, 18 h
Moraxella catarrhalis [6] = assay: Antimicrobial activity against Moraxella catarrhalis C2431 after 18 hrs by twofold agar dilution method; format: functional; settings: C2431, 18 h
Staphylococcus aureus [7] = assay: Antimicrobial activity against Staphylococcus aureus 77 after 18 hrs by twofold agar dilution method; format: functional; settings: Staphylococcus aureus, 77, 18 h
[8] = system: Acinetobacter calcoaceticus; assay: Antimicrobial activity against Acinetobacter calcoaceticus ATCC 15473 after 18 hrs by twofold agar dilution method; format: functional; settings: ATCC 15473, 18 h
Staphylococcus aureus [9] = assay: Antimicrobial activity against Staphylococcus aureus ATCC 6538P after 18 hrs by twofold agar dilution method; format: functional
Salmonella typhimurium [10] = assay: Antimicrobial activity against Salmonella typhimurium ATCC 13311 after 18 hrs by twofold agar dilution method; format: functional, Salmonella enterica subsp. enterica serovar Typhimurium; settings: Salmonella enterica, ATCC 13311, 18 h
Staphylococcus aureus [11] = assay: Antimicrobial activity against Staphylococcus aureus ATCC 25923 after 18 hrs by twofold agar dilution method; format: functional; settings: ATCC 25923, 18 h
Bacillus cereus = assay: Antimicrobial activity against Bacillus cereus ATCC 27348 after 18 hrs by twofold agar dilution method; format: functional; settings: ATCC 27348, 18 h
[12] = system: Staphylococcus epidermidis; assay: Antimicrobial activity against Staphylococcus epidermidis 887E after 18 hrs by twofold agar dilution method; format: functional; settings: read-out: MIC
Bacillus licheniformis = assay: Antimicrobial activity against Bacillus licheniformis EMR after 18 hrs by twofold agar dilution method; format: functional
Serratia marcescens [13] = assay: Antimicrobial activity against Serratia marcescens 1826E after 18 hrs by twofold agar dilution method; format: functional
Enterobacter cloacae [14] = assay: Antimicrobial activity against Enterobacter cloacae P99 after 18 hrs by twofold agar dilution method; format: functional; settings: P99, 18 h
Serratia marcescens [15] = assay: Antimicrobial activity against Serratia marcescens ATCC 27117 after 18 hrs by twofold agar dilution method; format: functional; settings: ATCC 27117, 18 h
Enterobacter cloacae [16] = assay: Antimicrobial activity against Enterobacter cloacae ATCC 27508 after 18 hrs by twofold agar dilution method; format: functional; settings: ATCC 27508, 18 h
Citrobacter freundii = assay: Antimicrobial activity against Citrobacter freundii 8090 after 18 hrs by twofold agar dilution method; format: functional; settings: Citrobacter freundii, 8090, 18 h
Klebsiella pneumoniae = assay: Antimicrobial activity against Klebsiella pneumoniae 2011E after 18 hrs by twofold agar dilution method; format: functional
Escherichia coli [17] = assay: Antimicrobial activity against Escherichia coli ATCC 10536 after 18 hrs by twofold agar dilution method; format: functional; settings: ATCC 10536, 18 h
Escherichia coli [18] = assay: Antimicrobial activity against Escherichia coli 3190Y after 18 hrs by twofold agar dilution method; format: functional
Salmonella typhimurium [19] = assay: Antimicrobial activity against Salmonella Typhimurium ATCC 14028 after 18 hrs by two-fold agar dilution method; format: functional, Salmonella enterica subsp. enterica serovar Typhimurium; settings: Salmonella enterica, ATCC 14028, 18 h

SMILES	MIC (Klebsiella aerogenes) [µg/mL]	MIC (Staphylococcus aureus [1]) [µg/mL]	MIC (Morganella morganii) [µg/mL]	MIC (Escherichia coli [2]) [µg/mL]	MIC (Micrococcus luteus) [µg/mL]	MIC (Bacillus subtilis) [µg/mL]	MIC (Citrobacter koseri) [µg/mL]	MIC (Staphylococcus aureus [5]) [µg/mL]	MIC (Pseudomonas aeruginosa) [µg/mL]	MIC (Proteus vulgaris) [µg/mL]	MIC [8] [µg/mL]	MIC (Staphylococcus aureus [9]) [µg/mL]	MIC (Salmonella typhimurium [10]) [µg/mL]	MIC [12] [µg/mL]	MIC (Serratia marcescens [13]) [µg/mL]	MIC (Enterobacter cloacae [14]) [µg/mL]	MIC (Serratia marcescens [15]) [µg/mL]	MIC (Enterobacter cloacae [16]) [µg/mL]	MIC (Citrobacter freundii) [µg/mL]	MIC (Klebsiella pneumoniae) [µg/mL]	further results
C[C@H](CO)[C@H]1CC[C@H]2[C@@H]3CC[C@H]4C[C@@H](NCCCNCCCCNCCCN)CC[C@]4(C)[C@H]3CC[C@]12C.Cl.Cl.Cl.Cl	> 32	8	> 32	> 32	32	8	> 32	32	> 32	> 32	> 32	8	> 32	32	> 32	> 32	> 32	> 32	> 32	> 32	MIC (Enterococcus faecalis; read-out: MIC): < 32 µg/mL; MIC (Escherichia coli [3]): > 32 µg/mL; MIC (Moraxella catarrhalis [4]; read-out: MIC): < 32 µg/mL; MIC (Moraxella catarrhalis [6]; read-out: MIC): < 32 µg/mL; MIC (Staphylococcus aureus [7]): > 32 µg/mL; MIC (Staphylococcus aureus [11]; read-out: MIC): 32 µg/mL; MIC (Bacillus cereus; read-out: MIC): < 32 µg/mL; MIC (Bacillus licheniformis; read-out: MIC): 32 µg/mL; MIC (Escherichia coli [17]; read-out: MIC): < 32 µg/mL; MIC (Escherichia coli [18]): > 32 µg/mL; MIC (Salmonella typhimurium [19]): > 32 µg/mL
C[C@H](CO)[C@H]1CC[C@H]2[C@@H]3CC[C@@H]4C[C@H](NCCCNCCCCNCCCN)CC[C@]4(C)[C@H]3CC[C@]12C.Cl.Cl.Cl.Cl	> 32	8	> 32	> 32	8	8	> 32	32	> 32	> 32	> 32	8	> 32	16	> 32	> 32	> 32	> 32	> 32	> 32	MIC (Enterococcus faecalis): > 32 µg/mL; MIC (Escherichia coli [3]): > 32 µg/mL; MIC (Moraxella catarrhalis [4]; read-out: MIC): < 32 µg/mL; MIC (Moraxella catarrhalis [6]; read-out: MIC): < 32 µg/mL; MIC (Staphylococcus aureus [7]; read-out: MIC): 8 µg/mL; MIC (Staphylococcus aureus [11]; read-out: MIC): 32 µg/mL; MIC (Bacillus cereus): > 32 µg/mL; MIC (Bacillus licheniformis; read-out: MIC): < 32 µg/mL; MIC (Escherichia coli [17]): > 32 µg/mL; MIC (Escherichia coli [18]): > 32 µg/mL; MIC (Salmonella typhimurium [19]): > 32 µg/mL
C[C@H](CO)[C@H]1CC[C@H]2[C@@H]3CC[C@@H]4C[C@@H](NCCCNCCCCNCCCN)CC[C@]4(C)[C@H]3CC[C@]12C.Cl.Cl.Cl.Cl	> 32	2	> 32	> 32	2	2	> 32	4	> 32	> 32	> 32	1	> 32	4	> 32	> 32	> 32	> 32	> 32	> 32	MIC (Enterococcus faecalis; read-out: MIC): 32 µg/mL; MIC (Escherichia coli [3]; read-out: MIC): 32 µg/mL; MIC (Moraxella catarrhalis [4]): > 32 µg/mL; MIC (Moraxella catarrhalis [6]): > 32 µg/mL; MIC (Staphylococcus aureus [7]; read-out: MIC): 2 µg/mL; MIC (Staphylococcus aureus [11]; read-out: MIC): 16 µg/mL; MIC (Bacillus cereus; read-out: MIC): < 32 µg/mL; MIC (Bacillus licheniformis): > 32 µg/mL; MIC (Escherichia coli [17]; read-out: MIC): 32 µg/mL; MIC (Escherichia coli [18]; read-out: MIC): 32 µg/mL; MIC (Salmonella typhimurium [19]): > 32 µg/mL
C[C@H](CO)[C@H]1CC[C@H]2[C@@H]3[C@H](F)C[C@H]4C[C@@H](NCCCNCCCCN)CC[C@]4(C)[C@H]3CC[C@]12C.Cl.Cl.Cl	> 32	8	> 32	> 32	16	16	> 32	8	> 32	> 32	> 32	8	> 32	16	> 32	> 32	> 32	> 32	> 32	> 32	MIC (Enterococcus faecalis; read-out: MIC): < 32 µg/mL; MIC (Escherichia coli [3]): > 32 µg/mL; MIC (Moraxella catarrhalis [4]; read-out: MIC): 32 µg/mL; MIC (Moraxella catarrhalis [6]): > 32 µg/mL; MIC (Staphylococcus aureus [7]; read-out: MIC): 8 µg/mL; MIC (Staphylococcus aureus [11]): > 32 µg/mL; MIC (Bacillus cereus): > 32 µg/mL; MIC (Bacillus licheniformis; read-out: MIC): < 32 µg/mL; MIC (Escherichia coli [17]): > 32 µg/mL; MIC (Escherichia coli [18]; read-out: MIC): < 32 µg/mL; MIC (Salmonella typhimurium [19]): > 32 µg/mL
C[C@H](CO)[C@H]1CC[C@H]2[C@@H]3[C@H](O)C[C@H]4C[C@@H](NCCCNCCCCN)CC[C@]4(C)[C@H]3CC[C@]12C.Cl.Cl.Cl	> 32	16	> 32	> 32	16	16	> 32	32	> 32	> 32	> 32	16	> 32	32	> 32	> 32	> 32	> 32	> 32	> 32	MIC (Enterococcus faecalis): > 32 µg/mL; MIC (Escherichia coli [3]; read-out: MIC): < 32 µg/mL; MIC (Moraxella catarrhalis [4]; read-out: MIC): < 32 µg/mL; MIC (Moraxella catarrhalis [6]): > 32 µg/mL; MIC (Staphylococcus aureus [7]; read-out: MIC): 16 µg/mL; MIC (Staphylococcus aureus [11]; read-out: MIC): < 32 µg/mL; MIC (Bacillus cereus): > 32 µg/mL; MIC (Bacillus licheniformis; read-out: MIC): < 32 µg/mL; MIC (Escherichia coli [17]): > 32 µg/mL; MIC (Escherichia coli [18]; read-out: MIC): < 32 µg/mL; MIC (Salmonella typhimurium [19]): > 32 µg/mL

Reference: ChEMBL document CHEMBL1795286, “A concise synthesis and antimicrobial activities of 3-polyamino-23,24-bisnorcholanes as steroid-polyamine conjugates” (2011)
